{
  "source": "ChEMBL document CHEMBL5120768",
  "about": "“Discovery of Anticancer Agents of Diverse Natural Origin” (J Nat Prod, 2022)",
  "key": {"MCF7 [1]": {"system": "MCF7", "assay": "Antiproliferative activity against human MCF7 cells", "assay_type": "functional, cell-based"}, "A2780 [2]": {"system": "A2780", "assay": "Antiproliferative activity against human A2780 cells", "assay_type": "functional, cell-based"}, "MDA-MB-231 [3]": {"system": "MDA-MB-231", "assay": "Antiproliferative activity against human MDA-MB-231 cells", "assay_type": "functional, cell-based"}, "MDA-MB-435 [4]": {"system": "MDA-MB-435", "assay": "Antiproliferative activity against human MDA-MB-435 cells", "assay_type": "functional, cell-based"}, "[5]": {"assay": "Antiproliferative activity against human CCD-112CoN cells after 72 hrs by SRB assay", "assay_type": "functional, cell-based"}, "MCF7 [6]": {"system": "MCF7", "assay": "Antiproliferative activity against human MCF7 cells by SRB assay", "assay_type": "functional, cell-based"}, "A2780 [7]": {"system": "A2780", "assay": "Antiproliferative activity against human A2780 cells by SRB assay", "assay_type": "functional, cell-based"}, "HT-29 [8]": {"system": "HT-29", "assay": "Antiproliferative activity against human HT-29 cells after 3 days by SRB assay", "assay_type": "functional, cell-based", "conditions": "HT-29, 72 h"}, "[9]": {"assay": "Antiproliferative activity against human PC-3 cells after 3 days by SRB assay", "assay_type": "functional, cell-based"}, "MDA-MB-435 [10]": {"system": "MDA-MB-435", "assay": "Antiproliferative activity against human MDA-MB-435 cells after 72 hrs by CellTiter 96 AQueous One Solution Cell Proliferation assay", "assay_type": "functional, cell-based", "conditions": "MDA-MB-435, 72 h"}, "HT-29 [11]": {"system": "HT-29", "assay": "Antiproliferative activity against human HT-29 cells after 72 hrs by CellTiter 96 AQueous One Solution Cell Proliferation assay", "assay_type": "functional, cell-based", "conditions": "HT-29, 72 h"}, "OVCAR-3": {"system": "OVCAR-3", "assay": "Antiproliferative activity against human OVCAR-3 cells after 72 hrs by CellTiter 96 AQueous One Solution Cell Proliferation assay", "assay_type": "functional, cell-based", "conditions": "OVCAR-3, 72 h"}, "MDA-MB-231 [12]": {"system": "MDA-MB-231", "assay": "Antiproliferative activity against human MDA-MB-231 cells after 72 hrs by CellTiter 96 AQueous One Solution Cell Proliferation assay", "assay_type": "functional, cell-based", "conditions": "MDA-MB-231, 72 h"}, "20S proteasome": {"target": "20S proteasome", "assay": "Inhibition of chymotrypsin-like activity of human erythrocytes 20S proteasome using Suc-LLVY-AMC as substrate and measured by fluorescence assay"}},
  "data": [
    {"smiles": "CC(=O)C1=C(O)C=C2Oc3c(C(C)=O)c(O)c(C)c(O)c3C2(C)C1=O", "note": "(stereo not drawn)", "values": [
      {"measurement": "IC50", "setting": "MCF7 [1]", "result": 6800, "unit": "nM"},
      {"measurement": "IC50", "setting": "A2780 [2]", "result": 3800, "unit": "nM"}
    ]},
    {"smiles": "CCCC[C@H]1CCCC[C@H](C)[C@@H](O)c2cc(O)c(c(O)c2)[C@@H](CCCC)CCCC[C@H](C)[C@@H](O[C@@H]2OC[C@@H](O)[C@@H](O)[C@H]2O)c2cc(O)c1c(O)c2", "values": [
      {"measurement": "IC50", "setting": "MDA-MB-231 [3]", "result": 600, "unit": "nM"},
      {"measurement": "IC50", "setting": "MDA-MB-435 [4]", "result": 600, "unit": "nM"}
    ]},
    {"smiles": "CCCC[C@H]1CCCC[C@H](C)Cc2cc(O)c(c(O)c2)[C@@H](CCCC)CCCC[C@H](C)[C@@H](O[C@@H]2OC[C@@H](O)[C@@H](O)[C@H]2O)c2cc(O)c1c(O)c2", "values": [
      {"measurement": "IC50", "setting": "MDA-MB-231 [3]", "result": 600, "unit": "nM"},
      {"measurement": "IC50", "setting": "MDA-MB-435 [4]", "result": 600, "unit": "nM"}
    ]},
    {"smiles": "C[C@H]1O[C@@H](O[C@H]2CC[C@]3(C)[C@H]4CC[C@]5(C)[C@@H](C6=CC(=O)OC6)CC[C@]5(O)[C@@H]4CC[C@]3(O)C2)C[C@H](O)[C@@H]1O[C@@H]1O[C@H](CO)[C@@H](O)[C@H](O)[C@H]1O", "values": [
      {"measurement": "IC50", "setting": "[5]", "result": 2700, "unit": "nM"}
    ]},
    {"smiles": "COc1cc(=O)oc(/C=C/C=C/C=C/C(C)=C/[C@]2(C)O[C@H](C)[C@](C)(O)[C@@H]2O)c1C", "values": [
      {"measurement": "IC50", "setting": "MCF7 [6]", "result": 6000, "unit": "nM"},
      {"measurement": "IC50", "setting": "A2780 [7]", "result": 8200, "unit": "nM"}
    ]},
    {"smiles": "COc1ccc([C@@]23Oc4cc5c(c(OC)c4[C@]2(O)[C@H](O)[C@H](C(N)=O)[C@H]3c2ccccc2)[C@H]2OC[C@H]([C@H](O)CO)O[C@H]2O5)cc1", "values": [
      {"measurement": "IC50", "setting": "HT-29 [8]", "result": "> 10000", "unit": "nM"},
      {"measurement": "IC50", "setting": "[9]", "result": "> 10000", "unit": "nM"}
    ]},
    {"smiles": "CO[C@H]1[C@H](O[C@H]2CC[C@]3(C=O)[C@H]4CC[C@]5(C)[C@](O)(C6=CC(=O)OC6)CC[C@]5(O)[C@@H]4CC[C@]3(O)C2)O[C@H](C)[C@H](O)[C@@H]1OC", "values": [
      {"measurement": "IC50", "setting": "MDA-MB-435 [10]", "result": "> 10000", "unit": "nM"},
      {"measurement": "IC50", "setting": "HT-29 [11]", "result": "> 10000", "unit": "nM"},
      {"measurement": "IC50", "setting": "OVCAR-3", "result": "> 10000", "unit": "nM"}
    ]},
    {"smiles": "CCCC[C@H]1CCCC[C@H](C)[C@@H](O[C@H]2OC[C@@H](O)[C@@H](O)[C@H]2O)c2cc(O)c(c(O)c2)[C@@H](CCCC)CCCC[C@H](C)[C@@H](O[C@@H]2OC[C@@H](O)[C@@H](O)[C@H]2O)c2cc(O)c1c(O)c2", "values": [
      {"measurement": "IC50", "setting": "MDA-MB-231 [3]", "result": 600, "unit": "nM"},
      {"measurement": "IC50", "setting": "MDA-MB-435 [4]", "result": 600, "unit": "nM"}
    ]},
    {"smiles": "C[C@@H]1CCCCC[C@H](CCCCO)c2c(O)cc(cc2O)[C@H](C)CCCCC[C@H](CCCO)c2c(O)cc1cc2O", "values": [
      {"measurement": "IC50", "setting": "MDA-MB-231 [12]", "result": 1000, "unit": "nM"}
    ]},
    {"smiles": "CCCCC(Cl)CCCC[C@H](C)[C@@H](O[C@@H]1OC[C@@H](O)[C@@H](O)[C@H]1O)c1cc(O)c([C@@H](CCCC)CCCC[C@H](O)[C@@H](OC(C)=O)c2cc(O)cc(O)c2)c(O)c1", "note": "(stereo partly drawn)", "values": [
      {"measurement": "IC50", "setting": "MDA-MB-231 [3]", "result": "> 25000", "unit": "nM"},
      {"measurement": "IC50", "setting": "MDA-MB-435 [4]", "result": "> 25000", "unit": "nM"}
    ]},
    {"smiles": "CCCC[C@H]1CCCCC[C@@H](C)c2cc(O)c(c(O)c2)[C@@H](CCC)CCCCC[C@@H](C)c2cc(O)c1c(O)c2", "values": [
      {"measurement": "IC50", "setting": "MDA-MB-231 [12]", "result": 1000, "unit": "nM"}
    ]},
    {"smiles": "CCC[C@H]1CCCCC[C@@H](C)c2cc(O)c(c(O)c2)[C@@H](CCCCO)CCCCC[C@@H](C)c2cc(O)c1c(O)c2", "values": [
      {"measurement": "IC50", "setting": "MDA-MB-231 [12]", "result": 1000, "unit": "nM"}
    ]},
    {"smiles": "CC[C@H](C)[C@@H]1NC(=O)[C@@H](CCC(N)=O)NC(=O)CNC(=O)[C@H](Cc2ccc(O)cc2)/N=C\\[C@H](CC(C)C)NC(=O)[C@H](C(C)C)NC(=O)[C@H](CO)NC1=O", "values": [
      {"measurement": "IC50", "setting": "20S proteasome", "result": 96, "unit": "nM"}
    ]},
    {"smiles": "COc1ccc([C@@]23Oc4cc(OC)cc(OC)c4[C@]2(O)[C@H](O)[C@H](C(N)=O)[C@H]3c2ccccc2)cc1", "note": "[DIDESMETHYLROCAGLAMIDE]", "values": [
      {"measurement": "IC50", "setting": "HT-29 [8]", "result": 21, "unit": "nM"}
    ]}
  ]
}
